Reference: US12018016B2, “Aryl sulfonyl (hydroxy) piperidines as CCR6 inhibitors” (CHEMOCENTRYX, INC., priority 2021, dated 2024)

target: T1, human CCR6 (Homo sapiens, UniProt P51684); experiment: Migration assay (chemotaxis, ChemoTX); type: cell-based; details: hCCR6-transfected Ba/F3 cells in human serum, migration to recombinant human CCL20 10 nM, 37° C. 45 minutes; read-out: Potency (IC50 value in the migration assay)
T1 construct: expressed in transfected cells; host or cells: Ba/F3 cells (mouse pro-B line)
T1 sequence (P51684 1-374): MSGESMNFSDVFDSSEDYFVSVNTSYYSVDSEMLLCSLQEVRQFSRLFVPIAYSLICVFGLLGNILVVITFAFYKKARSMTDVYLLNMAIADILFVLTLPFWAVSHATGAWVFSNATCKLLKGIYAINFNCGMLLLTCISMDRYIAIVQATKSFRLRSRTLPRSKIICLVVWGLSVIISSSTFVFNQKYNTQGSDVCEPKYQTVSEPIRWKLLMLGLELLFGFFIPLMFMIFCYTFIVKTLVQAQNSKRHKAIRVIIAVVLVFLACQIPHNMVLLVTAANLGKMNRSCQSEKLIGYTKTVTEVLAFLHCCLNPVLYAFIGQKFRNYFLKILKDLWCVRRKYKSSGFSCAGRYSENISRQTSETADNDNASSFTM
Summary of the method: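 Ba/F3 cells transfected with human CCR6 and butyrate-primed for 24 h were suspended at 4 million/ml in human serum with compound, serially diluted from a 1 μM final top concentration. Cells migrated through a 5-μm polycarbonate membrane toward 10 nM human CCL20 for 45 min at 37 °C. Migrated cells were quantified by CyQUANT fluorescence.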

IC50 [nM] | SMILES
< 1 | O=S(=O)(c1ccc(-c2ccnc(N3CCC3)c2)cc1)N1CC[C@@H](Nc2ccc(C(F)(F)F)cn2)[C@@H](O)C1 [Compound 139]
< 1 | CN(C)c1cc(-c2ccc(S(=O)(=O)N3CC[C@@H](Nc4ccc(C(F)(F)F)cn4)[C@@H](O)C3)cc2)cc(C(N)=O)n1 [Compound 196]
< 1 | Cc1c(-c2ccc(S(=O)(=O)N3CC[C@@H](Nc4ccc(C(F)(F)F)cn4)[C@@H](O)C3)cc2)c(C)[n+]([O-])c2[nH]ccc12 [Example 62, 5-(4-(((3S,4R)-3-hydroxy-4-((5-(trifluoromethyl)pyridin-2-yl)amino)piperidin-1-yl)sulfonyl)phenyl)-4,6-dimethyl-1H-pyrrolo[2,3-b]pyridine 7-oxide]
< 1 | O=C1NCCc2ccc(-c3ccc(S(=O)(=O)N4CC[C@@H](Nc5ccc(C(F)(F)F)cn5)[C@@H](O)C4)cc3)cc21 [Example 3, 7-(4-(((3S,4R)-3-hydroxy-4-((5-(trifluoromethyl)pyridin-2-yl)amino)piperidin-1-yl)sulfonyl)phenyl)-3,4-dihydroisoquinolin-1(2H)-one]
< 1 | Cc1ncc(C(N)=O)cc1-c1ccc(S(=O)(=O)N2CC[C@@H](Nc3ccc(C(F)(F)F)cn3)[C@@H](O)C2)cc1 [Compound 183]
< 1 | N[C@H]1C[C@@H](Nc2cc(-c3ccc(S(=O)(=O)N4CC[C@@H](Nc5ccc(C(F)(F)F)cn5)[C@@H](O)C4)cc3)ccn2)C1 [Compound 129]
< 1 | Cc1c(-c2ccc(S(=O)(=O)N3CC[C@@H](Nc4ccc(C(F)(F)F)cn4)[C@@H](O)C3)cc2)ccnc1N [Compound 166]
< 1 | COc1cc(-c2ccc(S(=O)(=O)N3CC[C@@H](Nc4ccc(C(F)(F)F)cn4)[C@@H](O)C3)cc2)cc2c(C#N)n[nH]c12 [Compound 122]
1 to 10 | Cc1cnc(CO)c(C)c1-c1ccc(S(=O)(=O)N2CC[C@@H](Nc3ccc(C(F)(F)F)cn3)[C@@H](O)C2)cc1 [Compound 205]
1 to 10 | O=S(=O)(c1ccc(-c2cncc(N3CCNCC3)c2)cc1)N1CC[C@@H](Nc2ccc(C(F)(F)F)cn2)[C@@H](O)C1 [Compound 76, (3S,4R)-1-((4-(5-(piperazin-1-yl)pyridin-3-yl)phenyl)sulfonyl)-4-((5-(trifluoromethyl)pyridin-2-yl)amino)piperidin-3-ol]
< 1 | COc1nccc(-c2ccc(S(=O)(=O)N3CC[C@@H](Nc4ccc(C(F)(F)F)cn4)[C@@H](O)C3)cc2)c1C [Compound 155]
1 to 10 | NC(=O)c1ccnc(-c2ccc(S(=O)(=O)N3CC[C@@H](Nc4ccc(C(F)(F)F)cn4)[C@@H](O)C3)cc2)c1 [Example 18, 2-(4-(((3S,4R)-3-Hydroxy-4-((5-(trifluoromethyl)pyridin-2-yl)amino)piperidin-1-yl)sulfonyl)phenyl)isonicotinamide]
< 1 | O=S(=O)(c1ccc(-c2ccncc2)cc1)N1CC[C@@H](Nc2ccc(C(F)(F)F)cn2)[C@@H](O)C1 [Compound 161]
1 to 10 | Cc1c[nH]c(-c2cc(-c3ccc(S(=O)(=O)N4CC[C@@H](Nc5ccc(C(F)(F)F)cn5)[C@@H](O)C4)cc3)ccn2)n1 [Compound 215]
< 1 | O=S(=O)(c1ccc(-c2cnc3c(O)nccc3c2)cc1)N1CC[C@@H](Nc2ccc(C(F)(F)F)cn2)[C@@H](O)C1 [Compound 190]
< 1 | O=C1NCc2ncc(-c3ccc(S(=O)(=O)N4CC[C@@H](Nc5ccc(C(F)(F)F)cn5)[C@@H](O)C4)cc3)cc21 [Example 48, 3-(4-(((3S,4R)-3-hydroxy-4-((5-(trifluoromethyl)pyridin-2-yl)amino)piperidin-1-yl)sulfonyl)phenyl)-6,7-dihydro-5H-pyrrolo[3,4-b]pyridin-5-one]
1 to 10 | NC(=O)c1cc(-c2ccc(S(=O)(=O)N3CC[C@@H](Nc4ccc(C(F)(F)F)cn4)[C@@H](O)C3)cc2)n[nH]1 [Compound 73, 3-(4-(((3S,4R)-3-hydroxy-4-((5-(trifluoromethyl)pyridin-2-yl)amino)piperidin-1-yl)sulfonyl)phenyl)-1H-pyrazole-5-carboxamide]
< 1 | O=S(=O)(c1ccc(-c2ccc(N3CC[C@H](O)C3)nc2)cc1)N1CC[C@@H](Nc2ccc(C(F)(F)F)cn2)[C@@H](O)C1 [Compound 175]
1 to 10 | CN(C)C1CCN(c2ccc(-c3ccc(S(=O)(=O)N4CC[C@@H](Nc5ccc(C(F)(F)F)cn5)[C@@H](O)C4)cc3)cn2)CC1 [Compound 105]

IC50 [nM] | SMILES
< 1 | NC(=O)c1cc(-c2ccc(S(=O)(=O)N3CC[C@@H](Nc4ccc(C(F)(F)F)cn4)[C@@H](O)C3)cc2)cnc1O [Example 51, 2-Hydroxy-5-(4-(((3S,4R)-3-hydroxy-4-((5-(trifluoromethyl)pyridin-2-yl)amino)piperidin-1-yl)sulfonyl)phenyl)nicotinamide]
< 1 | O=S(=O)(c1ccc(-c2cc(F)c3[nH]ncc3c2)cc1)N1CC[C@@H](Nc2ccc(C(F)(F)F)cn2)[C@@H](O)C1 [Compound 120]
< 1 | COc1c(-c2ccc(S(=O)(=O)N3CC[C@@H](Nc4ccc(C(F)(F)F)cn4)[C@@H](O)C3)cc2)ccnc1C [Compound 157]
< 1 | CN(C)C(=O)N1Cc2ccc(-c3ccc(S(=O)(=O)N4CC[C@@H](Nc5ccc(C(F)(F)F)cn5)[C@@H](O)C4)cc3)cc2C1 [Compound 186]
< 1 | COc1cc(-c2ccc(S(=O)(=O)N3CC[C@@H](Nc4ccc(C(F)(F)F)cn4)[C@@H](O)C3)cc2)cc2cn[nH]c12 [Example 21, (3S,4R)-1-((4-(7-methoxy-1H-indazol-5-yl)phenyl)sulfonyl)-4-((5-(trifluoromethyl)pyridin-2-yl)amino)piperidin-3-ol]
< 1 | Cc1cnc(-c2cc(-c3ccc(S(=O)(=O)N4CC[C@@H](Nc5ccc(C(F)(F)F)cn5)[C@@H](O)C4)cc3)ccn2)o1 [Compound 70, (3S,4R)-1-((4-(2-(5-methyloxazol-2-yl)pyridin-4-yl)phenyl)sulfonyl)-4-((5-(trifluoromethyl)pyridin-2-yl)amino)piperidin-3-ol]
< 1 | COc1cc(-c2ccc(S(=O)(=O)N3CC[C@@H](Nc4ccc(C(F)(F)F)cn4)[C@@H](O)C3)cc2)cc(C(N)=O)n1 [Example 44, 4-(4-(((3S,4R)-3-Hydroxy-4-((5-(trifluoromethyl)pyridin-2-yl)amino)piperidin-1-yl)sulfonyl)phenyl)-6-methoxypicolinamide]
1 to 10 | O=S(=O)(c1ccc(-c2ccc(N3CCNCC3)nc2)cc1)N1CC[C@@H](Nc2ccc(C(F)(F)F)cn2)[C@@H](O)C1 [Compound 114]
1 to 10 | CN(C)c1cc(-c2ccc(S(=O)(=O)N3CC[C@@H](Nc4ccc(C(F)(F)F)cn4)[C@@H](O)C3)cc2)ccn1 [Compound 124]
< 1 | NC(=O)N1Cc2ccc(-c3ccc(S(=O)(=O)N4CC[C@@H](Nc5ccc(C(F)(F)F)cn5)[C@@H](O)C4)cc3)cc2C1 [Example 4, 5-(4-(((3S,4R)-3-hydroxy-4-((5-(trifluoromethyl)pyridin-2-yl)amino)piperidin-1-yl)sulfonyl)phenyl)isoindoline-2-carboxamide]
1 to 10 | Cn1cc(-c2ccc(S(=O)(=O)N3CC[C@@H](Nc4ccc(C(F)(F)F)cn4)[C@@H](O)C3)cc2)nc1C(N)=O [Compound 72, 4-(4-(((3S,4R)-3-hydroxy-4-((5-(trifluoromethyl)pyridin-2-yl)amino)piperidin-1-yl)sulfonyl)phenyl)-1-methyl-1H-imidazole-2-carboxamide]
< 1 | O=C1CCc2cc(-c3ccc(S(=O)(=O)N4CC[C@@H](Nc5ccc(C(F)(F)F)cn5)[C@@H](O)C4)cc3)ccc2N1 [Example 2, 6-(4-(((3S,4R)-3-hydroxy-4-((5-(trifluoromethyl)pyridin-2-yl)amino)piperidin-1-yl)sulfonyl)phenyl)-3,4-dihydroquinolin-2(1H)-one]
< 1 | Cc1cc(-c2ccc(S(=O)(=O)N3CC[C@@H](Nc4ccc(C(F)(F)F)cn4)[C@@H](O)C3)cc2)cc2cn[nH]c12 [Example 16, (3S,4R)-1-((4-(7-methyl-1H-indazol-5-yl)phenyl)sulfonyl)-4-((5-(trifluoromethyl)pyridin-2-yl)amino)piperidin-3-ol]
< 1 | Cc1nnc(-c2cc(-c3ccc(S(=O)(=O)N4CC[C@@H](Nc5ccc(C(F)(F)F)cn5)[C@@H](O)C4)cc3)c(C)cn2)o1 [Compound 213]
< 1 | NC(=O)c1cc(-c2ccc(S(=O)(=O)N3CC[C@@H](Nc4ccc(C(F)(F)F)cn4)[C@@H](O)C3)cc2)cnn1 [Compound 198]
< 1 | O=S(=O)(c1ccc(-c2ccc3[nH]ncc3c2)cc1)N1CC[C@@H](Nc2ccc(C(F)(F)F)cn2)[C@@H](O)C1 [Example 23, (3S,4R)-1-((4-(1H-indazol-5-yl)phenyl)sulfonyl)-4-((5-(trifluoromethyl)pyridin-2-yl)amino)piperidin-3-ol]
< 1 | CN1CC2(C1)CN(c1ccc(-c3ccc(S(=O)(=O)N4CC[C@@H](Nc5ccc(C(F)(F)F)cn5)[C@@H](O)C4)cc3)cn1)C2 [Compound 99]
< 1 | O=S(=O)(c1ccc(-c2cnc3[nH]ccc3c2F)cc1)N1CC[C@@H](Nc2ccc(C(F)(F)F)cn2)[C@@H](O)C1 [Compound 119]
1 to 10 | COc1cc(-c2ccc(S(=O)(=O)N3CC[C@@H](Nc4ccc(C(F)(F)F)cn4)[C@@H](O)C3)cc2)ccn1 [Compound 165]
